Laboratory results as given in patent publication US20180203025A1, “HDL THERAPY MARKERS” (Cerenis Therapeutics Holding SA, priority 2014, published 2018).

Tests used:
[1] = system: SR-BI mRNA in mouse macrophages (J774); test: SR-BI gene expression (real-time PCR) in J774 macrophages; format: cell-based
Procedure: J774 were seeded on 6 well plates (300,000 cells/well) and loaded with oxidized-LDL without the use of 3H-cholesterol. […] Gene expression was assayed using the protocols described in Sections 8.3.2 (RNA extraction); 8.3.4 (reverse transcription), and 8.3.5 (qPCR). SR-BI gene expression was determined with Taqman probe Mm00450234.m1 according to the manufacturer's protocol. The reference gene used is HPRT1 (Taqman probe: Mm00446968.m1).
J774 were seeded on 6 well plates (300,000 cells/well) and loaded with oxidized-LDL. […] Gene expression was assayed using the protocols described in Sections 8.3.2 (RNA extraction); 8.3.4 (reverse transcription), and 8.3.5 (qPCR). SR-BI gene (Taqman probe Mm00450234.m1), ABCG1 (Taqman probe Mm00437390.m1), SREBP1 (Taqman probe Mm01138344.m1) and ABCA1 (Taqman probe Mm00442646.m1) expression were determined according to the manufacturer's protocol. […]
J774 were seeded on 6 well plates (600,000 cells/well) in DMEM 10% FCS. […] ABCG1 (Taqman probe Mm00437390.m1), ABCA1 (Taqman probe Mm00442646.m1) and SR-BI (Taqman probe Mm00450234.m1) expression were determined according to the manufacturer's protocol. […]
J774 were seeded on 6 well plates (300,000 cells/well) in DMEM 2.5% FCS. […] ABCA1 (Taqman probe Mm00442646.m1), ABCG1 (Taqman probe Mm00437390.m1), and SR-BI (Taqman probe Mm00450234.m1) expression were determined according to the manufacturer's protocol. […]

[2] = system: SREBP-1 mRNA in mouse macrophages (J774); test: SREBP-1 gene expression (real-time PCR) in J774 macrophages; format: cell-based; conditions: 6 hours
Procedure: The mRNA regulation of those genes expressing ABCA1, ABCG1 and SR-BI is linked to nuclear proteins as LXR, SREBP1 and SREBP2. […] Gene expression was assayed using the protocols described in Sections 8.3.2 (RNA extraction); 8.3.4 (reverse transcription), and 8.3.5 (qPCR). SREBP-1, SREBP-2 and LXR gene expression levels were determined with Taqman probe (Mm01138344.m1, Mm01306292.m1, Mm00443451.m1 respectively) according to the manufacturer's protocol. The reference gene used is HPRT1 (Taqman probe: Mm00446968.m1).
J774 were seeded on 6 well plates (300,000 cells/well) and loaded with oxidized-LDL. […] Gene expression was assayed using the protocols described in Sections 8.3.2 (RNA extraction); 8.3.4 (reverse transcription), and 8.3.5 (qPCR). SR-BI gene (Taqman probe Mm00450234.m1), ABCG1 (Taqman probe Mm00437390.m1), SREBP1 (Taqman probe Mm01138344.m1) and ABCA1 (Taqman probe Mm00442646.m1) expression were determined according to the manufacturer's protocol. The reference gene used is HPRT1 (Taqman probe: Mm00446968.m1).
This study used β-cyclodextrin to examine the effect of β-cyclodextrin on LXR, SREBP1 and SREBP2 mRNA expression in J774 macrophages. J774 were seeded on 6 well plates (300,000 cells/well). β-cyclodextrin (0.03, 0.1, 0.3, 1, 3, 10 and 30 mM) was added for 6 hours on the macrophages and the RNA were extracted with the RiboPure™ kit according to the manufacturer's protocol. Gene expression was assayed using the protocols described in Sections 8.3.2 (RNA extraction); 8.3.4 (reverse transcription), and 8.3.5 (qPCR). SREBP-1, SREBP-2 and LXR gene expression were determined with Taqman probe (Mm01138344.m1, Mm01306292.m1, Mm00443451.m1 respectively) according to the manufacturer's protocol. The reference gene used is HPRT1 (Taqman probe: Mm00446968.m1).

[3] = cited from earlier work

Molecule	SR-BI mRNA level ([1]; Study O, 0.03 to 30 mM, 6 hours)	SREBP-1 mRNA ([2]; Study P, 0.03 to 30 mM)	SR-BI mRNA level ([1]; Study J, 24 hours treatment, 250 μg/mL)	SREBP-1 gene expression ([2]; Study D, 25, 250 and 1000 μg/mL)	concentration above which SREBP1 decrease and plateau observed ([2]; Study E)	cholesterol mobilization ([3]; healthy volunteers, single IV doses 0.25 to 45 mg/kg)	dose level above which a transient increase of triglycerides was observed ([3]; human, in vivo, iv)
OC[C@H]1O[C@@H]2O[C@H]3[C@H](O)[C@@H](O)[C@@H](O[C@H]4[C@H](O)[C@@H](O)[C@@H](O[C@H]5[C@H](O)[C@@H](O)[C@@H](O[C@H]6[C@H](O)[C@@H](O)[C@@H](O[C@H]7[C@H](O)[C@@H](O)[C@@H](O[C@H]8[C@H](O)[C@@H](O)[C@@H](O[C@H]1[C@H](O)[C@H]2O)O[C@@H]8CO)O[C@@H]7CO)O[C@@H]6CO)O[C@@H]5CO)O[C@@H]4CO)O[C@@H]3CO [β-cyclodextrin, reference compound]	dose-dependent increase	dose-dependent decrease	–	–	–	–	–
CER-001: engineered recombinant human apolipoprotein A-I HDL with sphingomyelin and DPPG; protein-to-phospholipid ratio 1:2.7, 97% Sph and 3% DPPG	–	–	do not change the mRNA level of SR-BI	affected SREBP-1 mRNA levels	above 2.5 μg/mL	increased cholesterol mobilization with increasing doses	greater than 15 mg/kg
